Tests used:
SARS-CoV-2 [1] = assay: microbe, parasite or virus in culture; assay type: functional, organism-based, Chlorocebus sabaeus, Vero C1008; details: Severe acute respiratory syndrome coronavirus 2, Vero C1008, 48 h
SARS-CoV-2 [2] = assay: microbe, parasite or virus in culture; details: Severe acute respiratory syndrome coronavirus 2, Vero C1008, 48 h
in vitro = details: chlorocebus sabaeus, Vero E6 (Vero C1008) cells

Row | SMILES | IC50 (SARS-CoV-2 [1]; read-out: IC50) [µM] | IC50 (SARS-CoV-2 [1]; read-out: pIC50 (converted)) [µM] | IC50 (SARS-CoV-2 [2]) [µM] | IC50 (SARS-CoV-2 [2]; read-out: pIC50 (converted)) [µM] | CC50 at 48 h (in vitro; CC50) [µM] | CC50 at 48 h (in vitro; pCC50) [µM]
1 | COc1ccc2cc(-c3cc(-c4cc(Cl)cc(Cl)c4)nn3[C@@H](C)c3ccc(C(=O)NCCC(=O)O)cc3)ccc2c1 [MK-0893] | > 100 | > 100 | > 100 | > 100 | ~18.8 | ~18.6
2 | Nc1ccc2cc3ccc(N)cc3nc2c1 [PROFLAVINE] | > 25.1 | > 25.1 | ~15 | ~14.8 | ~6.61 | ~6.61
3 | COC(=O)C1C2CC3c4[nH]c5cc(OC)ccc5c4CCN3CC2CC(OC(=O)/C=C/c2cc(OC)c(OC)c(OC)c2)C1OC (centres undefined) | > 100 | > 100 | > 50.1 | > 50.1 | 5.5 | 5.5
4 | CN(C)CCOC1=Cc2ccccc2Sc2ccc(Cl)cc21 [ZOTEPINE] | > 100 | > 100 | > 100 | > 100 | 12.3 | 12.3
5 | COc1cc(C(=O)OCCN2CCN(CCCN3c4ccccc4Sc4ccc(Cl)cc43)CC2)cc(OC)c1OC [METOFENAZATE] | > 100 | > 100 | 18.6 | 18.6 | > 100 | > 100
6 | O=C1NC2CCCCN2C12CCN(CCCN1c3ccccc3CCc3ccc(Cl)cc31)CC2 (centres undefined) [MOSAPRAMINE] | > 100 | > 100 | 7.41 | 7.41 | 8.13 | 8.13
7 | CC(C)(C)NC[C@H](O)COc1ccccc1C1CCCC1 [PENBUTOLOL] | 20 | 20 | 15.1 | 15.1 | 29.5 | 29.5
8 | CCOC(=O)Oc1c(OC)cc(C(=O)OC2CC3CN4CCc5c([nH]c6cc(OC)ccc56)C4CC3C(C(=O)OC)C2OC)cc1OC (centres undefined) | > 100 | > 100 | > 100 | > 100 | 8.91 | 8.91
9 | CNCc1ccc(-c2cc(-c3nc(-c4ccc(S(=O)(=O)C(C)C)cc4)cnc3N)on2)cc1 [BERZOSERTIB] | ~7.16 | ~7.08 | > 5.01 | > 5.01 | 10.2 | 10.2
10 | COc1cccc2c1C(=O)c1c(O)c3c(c(O)c1C2=O)C[C@@](O)(C(=O)CO)C[C@@H]3O[C@H]1C[C@H](N)[C@H](O)[C@H](C)O1 [DOXORUBICIN] | ~33.1 | ~33.1 | 8.04 | 7.94 | 64.6 | 64.6
11 | CNC(=O)[C@@H](c1ccccc1)N1CCc2cc(OC)c(OC)cc2[C@@H]1CCc1ccc(C(F)(F)F)cc1 [ALMOREXANT] | > 25.1 | > 25.1 | 18.6 | 18.6 | 21.4 | 21.4
12 | C[C@H]1c2ccccc2[C@@H](CCCN(C)C)c2cc(C(F)(F)F)ccc21 | 10.5 | 10.5 | > 100 | > 100 | 12 | 12
13 | CC[C@@H]([C@H](C)O)n1ncn(-c2ccc(N3CCN(c4ccc(OC[C@@H]5CO[C@@](Cn6cncn6)(c6ccc(F)cc6F)C5)cc4)CC3)cc2)c1=O [POSACONAZOLE] | > 100 | > 100 | > 100 | > 100 | > 100 | > 100
14 | O=C(Nc1ccccc1)OCC(CN1CCCCC1)OC(=O)Nc1ccccc1 (centres undefined) [DIPERODON] | > 25.1 | > 25.1 | 15.1 | 15.1 | > 25.1 | > 25.1

Reference: ChEMBL document CHEMBL4651402, “Screening of ~5500 FDA-approved drugs and clinical candidates for anti-SARS-CoV-2 activity” (2021)
